Where two headings read alike, the source gives them in different places.
Legend:
human TLR7 = human TLR7 (Homo sapiens (Human), UniProt Q9NYK1); test: TLR7 inhibition reporter assay (HEK-Blue cells, SEAP reporter, gardiquimod stimulation); format: cell-based
human TLR8 = human TLR8 (Homo sapiens (Human), UniProt Q9NR97); test: TLR8 inhibition reporter assay (HEK-Blue cells, SEAP reporter, R848 stimulation);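 further: compounds tested from 0.05 nM to 50 µM, 22 h at 37 °C, SEAP measured with HEK-Blue Detection, inhibition relative to agonist plus DMSO versus a known inhibitor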
human TLR8, sequence (Q9NR97 27-1041): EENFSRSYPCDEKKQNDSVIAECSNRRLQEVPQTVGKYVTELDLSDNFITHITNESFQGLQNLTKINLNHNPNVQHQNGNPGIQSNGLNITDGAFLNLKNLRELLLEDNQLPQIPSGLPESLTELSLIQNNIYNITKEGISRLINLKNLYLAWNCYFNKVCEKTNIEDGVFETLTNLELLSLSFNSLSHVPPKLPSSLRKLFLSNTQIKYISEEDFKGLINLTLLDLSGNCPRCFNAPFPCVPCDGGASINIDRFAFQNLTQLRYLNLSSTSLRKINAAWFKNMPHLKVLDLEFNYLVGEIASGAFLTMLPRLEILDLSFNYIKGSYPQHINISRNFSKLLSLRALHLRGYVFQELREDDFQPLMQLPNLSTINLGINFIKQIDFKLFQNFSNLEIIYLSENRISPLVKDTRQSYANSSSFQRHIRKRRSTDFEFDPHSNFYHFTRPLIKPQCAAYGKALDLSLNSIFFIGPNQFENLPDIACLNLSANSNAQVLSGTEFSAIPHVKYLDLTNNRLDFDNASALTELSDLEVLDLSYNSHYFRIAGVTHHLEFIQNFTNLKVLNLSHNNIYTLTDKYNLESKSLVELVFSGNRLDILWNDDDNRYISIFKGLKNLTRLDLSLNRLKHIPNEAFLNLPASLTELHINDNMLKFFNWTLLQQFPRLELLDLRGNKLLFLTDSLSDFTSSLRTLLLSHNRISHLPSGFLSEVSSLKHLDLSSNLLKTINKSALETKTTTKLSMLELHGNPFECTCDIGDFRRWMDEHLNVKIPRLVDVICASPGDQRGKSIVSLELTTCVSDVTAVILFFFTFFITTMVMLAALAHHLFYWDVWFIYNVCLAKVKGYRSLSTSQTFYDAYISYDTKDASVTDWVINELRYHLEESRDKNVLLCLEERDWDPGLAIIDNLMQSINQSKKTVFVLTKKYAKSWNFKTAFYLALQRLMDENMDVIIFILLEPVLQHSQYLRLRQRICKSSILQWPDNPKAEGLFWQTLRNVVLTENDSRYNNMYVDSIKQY

human TLR9 = human TLR9 (Homo sapiens (Human), UniProt Q9NR96); test: TLR9 inhibition reporter assay (HEK-Blue cells, SEAP reporter, ODN2006 stimulation);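 further: compounds tested over 0.05 nM to 50 µM, 22 h incubation, inhibition taken as SEAP signal drop from agonist plus DMSO wells toward a known inhibitor control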
human TLR9, sequence (Q9NR96 26-1032): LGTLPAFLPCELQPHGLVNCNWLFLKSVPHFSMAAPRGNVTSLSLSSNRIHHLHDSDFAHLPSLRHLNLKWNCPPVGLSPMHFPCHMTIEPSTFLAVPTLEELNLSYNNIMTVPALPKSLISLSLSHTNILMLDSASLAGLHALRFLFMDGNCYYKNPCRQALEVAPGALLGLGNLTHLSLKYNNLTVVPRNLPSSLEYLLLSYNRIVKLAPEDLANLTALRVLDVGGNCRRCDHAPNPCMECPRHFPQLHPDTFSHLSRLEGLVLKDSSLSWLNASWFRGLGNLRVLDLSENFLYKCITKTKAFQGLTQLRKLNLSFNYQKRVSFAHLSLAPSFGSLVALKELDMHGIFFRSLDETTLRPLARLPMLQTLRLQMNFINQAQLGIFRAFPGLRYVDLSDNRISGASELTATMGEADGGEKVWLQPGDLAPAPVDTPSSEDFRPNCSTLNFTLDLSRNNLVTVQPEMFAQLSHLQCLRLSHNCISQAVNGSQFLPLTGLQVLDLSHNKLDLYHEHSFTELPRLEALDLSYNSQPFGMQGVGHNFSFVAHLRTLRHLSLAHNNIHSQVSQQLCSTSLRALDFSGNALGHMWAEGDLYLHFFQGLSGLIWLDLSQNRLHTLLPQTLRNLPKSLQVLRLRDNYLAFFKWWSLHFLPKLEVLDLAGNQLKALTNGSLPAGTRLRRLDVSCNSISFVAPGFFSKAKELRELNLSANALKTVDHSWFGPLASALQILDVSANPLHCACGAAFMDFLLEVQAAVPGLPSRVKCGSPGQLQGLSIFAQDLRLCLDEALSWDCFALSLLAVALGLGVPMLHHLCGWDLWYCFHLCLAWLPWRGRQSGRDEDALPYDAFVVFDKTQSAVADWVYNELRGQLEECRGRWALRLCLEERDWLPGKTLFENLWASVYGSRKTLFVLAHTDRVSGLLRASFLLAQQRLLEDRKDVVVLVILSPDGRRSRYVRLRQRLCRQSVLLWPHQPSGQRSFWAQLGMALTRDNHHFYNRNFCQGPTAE

[1] = HEK-Blue cells overexpressing human TLR7, gardiquimod 7.5 μM
[2] = read-out: TLR8 IC50, HEK-Blue cells overexpressing human TLR8, R848 15.9 μM
[3] = read-out: TLR9 IC50, HEK-Blue cells overexpressing human TLR9, ODN2006 5 nM
[4] = HEK-Blue cells, gardiquimod 7.5 μM
[5] = read-out: TLR8 IC50, HEK-Blue cells, R848 15.9 μM
[6] = read-out: TLR9 IC50, HEK-Blue cells, ODN2006 5 nM

human TLR7, sequence (Q9NYK1 27-1049): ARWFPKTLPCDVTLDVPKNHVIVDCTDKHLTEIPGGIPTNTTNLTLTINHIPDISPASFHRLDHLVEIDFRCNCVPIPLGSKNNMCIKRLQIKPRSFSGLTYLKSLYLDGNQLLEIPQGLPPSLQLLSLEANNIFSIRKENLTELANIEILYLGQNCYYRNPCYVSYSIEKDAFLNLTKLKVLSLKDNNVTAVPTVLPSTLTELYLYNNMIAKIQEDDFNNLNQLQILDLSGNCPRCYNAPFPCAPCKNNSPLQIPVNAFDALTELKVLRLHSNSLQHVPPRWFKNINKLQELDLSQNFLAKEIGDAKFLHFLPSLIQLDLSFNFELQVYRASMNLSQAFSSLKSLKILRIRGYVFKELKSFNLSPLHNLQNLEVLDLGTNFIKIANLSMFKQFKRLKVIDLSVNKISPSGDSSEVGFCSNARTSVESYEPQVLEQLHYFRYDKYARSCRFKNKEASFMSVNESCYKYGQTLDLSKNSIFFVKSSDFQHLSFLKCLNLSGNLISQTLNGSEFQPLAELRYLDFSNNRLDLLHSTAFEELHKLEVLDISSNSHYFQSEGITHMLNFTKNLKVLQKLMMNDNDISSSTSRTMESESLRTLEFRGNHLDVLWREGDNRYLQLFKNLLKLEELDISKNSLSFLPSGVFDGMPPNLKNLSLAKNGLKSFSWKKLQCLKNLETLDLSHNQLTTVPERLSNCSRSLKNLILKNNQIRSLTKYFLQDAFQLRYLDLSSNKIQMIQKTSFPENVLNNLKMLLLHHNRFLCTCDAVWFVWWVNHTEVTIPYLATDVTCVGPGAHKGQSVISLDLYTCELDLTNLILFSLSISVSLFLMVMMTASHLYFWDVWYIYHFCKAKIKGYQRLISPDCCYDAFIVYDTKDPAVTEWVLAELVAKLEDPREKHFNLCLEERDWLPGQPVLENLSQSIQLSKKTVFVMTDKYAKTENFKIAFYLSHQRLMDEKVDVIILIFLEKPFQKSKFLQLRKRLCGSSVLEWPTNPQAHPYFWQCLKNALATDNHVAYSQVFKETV

Row | Compound | IC50 (human TLR7; [1]) | IC50 (human TLR8; [2]) | IC50 (human TLR9; [3]) | IC50 (human TLR8; TLR8 IC50, HEK-Blue cells overexpressing human TLR8, R848 15.9 μM) | IC50 (human TLR9; TLR9 IC50, HEK-Blue cells overexpressing human TLR9, ODN2006 5 nM) | IC50 (human TLR7; [4]) | IC50 (human TLR8; [5]) | IC50 (human TLR9; [6])
1 | CCC(CC)NCC(=O)N1CCC(c2ccc3[nH]c(-c4cc(C)nc(C)c4)c(C(C)C)c3c2)CC1 [Example 345, 1-(4-(2-(2,6-dimethylpyridin-4-yl)-3-isopropyl-1H-indol-5-yl)piperidin-1-yl)-2-(pentan-3-ylamino)ethan-1-one] | 12.3 nM | 34 nM | 544 nM |  |  |  |  | 
2 | Cc1nccc(-c2[nH]c3ccc(C4CCN(C(=O)CN(C)C)CC4)cc3c2C(C)C)c1F [Example 587, 2-(dimethylamino)-1-(4-(2-(3-fluoro-2-methylpyridin-4-yl)-3-isopropyl-1H-indol-5-yl)piperidin-1-yl)ethan-1-one] | 2.7 nM | 5.2 nM | 2910 nM |  |  |  |  | 
3 | Cc1ncc(CN2CCC(c3ccc4[nH]c(-c5ccnc(N)c5)c(C(C)C)c4c3)CC2)[nH]1 [Example 818, 4-(3-isopropyl-5-(1-((2-methyl-1H-imidazol-5-yl)methyl)piperidin-4-yl)-1H-indol-2-yl)pyridin-2-amine] |  |  |  |  |  | 283 nM | 53.3 nM | 230 nM
4 | Cc1cc(-c2[nH]c3ccc(C4CCN(C5CCOC5)CC4)cc3c2C(C)C)c(C)cn1 (stereo not drawn) [Example 728, 2-(2,5-dimethylpyridin-4-yl)-3-isopropyl-5-(1-(tetrahydrofuran-3-yl)piperidin-4-yl)-1H-indole] | 6.7 nM | 1.1 nM | 1340 nM |  |  |  |  | 
5 | Cc1cc(-c2[nH]c3ccc(C4CCN(CC(F)(F)F)CC4)cc3c2C(C)C)ccn1 [Example 658, 3-isopropyl-2-(2-methylpyridin-4-yl)-5-(1-(2,2,2-trifluoroethyl)piperidin-4-yl)-1H-indole] | 434 nM | 645 nM | 7290 nM |  |  |  |  | 
6 | Cc1cc(-c2[nH]c3ccc(C4CCN(C5CCOCC5)CC4)cc3c2C(C)C)c(F)cn1 [Example 715, 2-(5-fluoro-2-methylpyridin-4-yl)-3-isopropyl-5-(1-(tetrahydro-2H-pyran-4-yl)piperidin-4-yl)-1H-indole] | 20.7 nM | 3.8 nM | 2990 nM |  |  |  |  | 
7 | CC(C)c1c(-c2ccnc(C(=O)NCC(F)(F)F)c2)[nH]c2ccc(C3CCNCC3)cc12 [Example 476, 4-(3-isopropyl-5-(piperidin-4-yl)-1H-indol-2-yl)-N-(2,2,2-trifluoroethyl) picolinamide] | 6070 nM | 1040 nM | 3260 nM |  |  |  |  | 
8 | Cc1cc(-c2[nH]c3ccc(C4CCN(C(=O)C5CC(=O)N(C(C)(C)C)C5)CC4)cc3c2C(C)C)ccn1 (stereo not drawn) [Example 613, 1-(tert-butyl)-4-(4-(3-isopropyl-2-(2-methylpyridin-4-yl)-1H-indol-5-yl)piperidine-1-carbonyl)pyrrolidin-2-one] | 55.1 nM | 206 nM | 7630 nM |  |  |  |  | 
9 | Cc1cc(-c2[nH]c3ccc(C4CCN(Cc5nncn5C)CC4)cc3c2C(C)C)c(F)cn1 [Example 737, 2-(5-fluoro-2-methylpyridin-4-yl)-3-isopropyl-5-(1-((4-methyl-4H-1,2,4-triazol-3-yl)methyl)piperidin-4-yl)-1H-indole] | 14.5 nM | 5.1 nM | > 50000 nM |  |  |  |  | 
10 | CCc1c(-c2ccnc(OCCN(C)C)c2)[nH]c2ccc(C3CCN(C4CCN(CC(C)C)CC4)CC3)cc12 [Example 770, 2-((4-(3-ethyl-5-(1′-isobutyl-[1,4′-bipiperidin]-4-yl)-1H-indol-2-yl)pyridin-2-yl)oxy)-N,N-dimethylethan-1-amine] | 6730 nM | > 50000 nM | 310 nM |  |  |  |  | 
11 | CCc1c(-c2ccnc(OC)c2)[nH]c2ccc(C3CCN(C4CCCN(C5CCCC5)CC4)CC3)cc12 (stereo not drawn) [Example 793, 5-(1-(1-cyclopentylazepan-4-yl)piperidin-4-yl)-3-ethyl-2-(2-methoxypyridin-4-yl)-1H-indole] | 371 nM | 29.6 nM | 252 nM |  |  |  |  | 
12 | Cc1cc(-c2[nH]c3ccc(C4CCNCC4)cc3c2C(C)C)c(N)c(C)n1 [Example 29, 4-(3-isopropyl-5-(piperidin-4-yl)-1H-indol-2-yl)-2,6-dimethylpyridin-3-amine] | 2.1 nM | 18.8 nM | 264 nM |  |  |  |  | 
13 | CC(C)c1c(-c2ccnc(Cl)c2C#N)[nH]c2ccc(C3CCNCC3)cc12 [Example 36, 2-chloro-4-(3-isopropyl-5-(piperidin-4-yl)-1H-indol-2-yl)nicotinonitrile] | 1270 nM | 454 nM | 4870 nM |  |  |  |  | 
14 | CCc1c(-c2ccnc(C)c2)[nH]c2ccc(C3CCN(C(=O)C4CCNC4)CC3)cc12 (stereo not drawn) [Example 633, (4-(3-ethyl-2-(2-methylpyridin-4-yl)-1H-indol-5-yl)piperidin-1-yl)(pyrrolidin-3-yl)methanone] | 39 nM | 83.3 nM | 311 nM |  |  |  |  | 
15 | Cc1cc(-c2[nH]c3ccc(C4CCN(CC(=O)N(C)C)CC4)cc3c2C(C)C)c(F)cn1 [Example 643, 2-(4-(2-(5-fluoro-2-methylpyridin-4-yl)-3-isopropyl-1H-indol-5-yl)piperidin-1-yl)-N,N-dimethylacetamide] | 4.5 nM | 4.7 nM | 4400 nM |  |  |  |  | 
16 | CNC(=O)C(=O)N1CCC(c2ccc3[nH]c(-c4ccnc(C)c4)c(C(C)C)c3c2)CC1 [Example 879, 2-(4-(3-isopropyl-2-(2-methylpyridin-4-yl)-1H-indol-5-yl)piperidin-1-yl)-N-methyl-2-oxoacetamide] |  |  |  |  |  | 37 nM | 168 nM | > 50000 nM

The next lines start with the values.

Row | IC50 (human TLR7; [1]) | IC50 (human TLR8; [2]) | IC50 (human TLR9; [3]) | IC50 (human TLR8; TLR8 IC50, HEK-Blue cells overexpressing human TLR8, R848 15.9 μM) | IC50 (human TLR9; TLR9 IC50, HEK-Blue cells overexpressing human TLR9, ODN2006 5 nM) | IC50 (human TLR7; [4]) | IC50 (human TLR8; [5]) | IC50 (human TLR9; [6]) | Compound
17 | 8.3 nM |  |  | 7.9 nM | 1090 nM |  |  |  | CCOCCNC(=O)CN1CCC(c2ccc3[nH]c(-c4cc(C)nc(C)c4)c(C(C)C)c3c2)CC1 [Example 240, 2-(4-(2-(2,6-dimethylpyridin-4-yl)-3-isopropyl-1H-indol-5-yl)piperidin-1-yl)-N-(2-ethoxyethyl)acetamide]
18 | 13.4 nM | 43.6 nM | 710 nM |  |  |  |  |  | CCC(C)CN(CCO)C(=O)CN1CCC(c2ccc3[nH]c(-c4cc(C)nc(C)c4)c(C(C)C)c3c2)CC1 (stereo not drawn) [Example 297, 2-(4-(2-(2,6-dimethylpyridin-4-yl)-3-isopropyl-1H-indol-5-yl)piperidin-1-yl)-N-(2-hydroxyethyl)-N-(2-methylbutyl)acetamide]
19 | 14.1 nM | 58.3 nM | 1880 nM |  |  |  |  |  | CCN(CCO)C(=O)CN1CCC(c2ccc3[nH]c(-c4cc(C)nc(C)c4)c(C(C)C)c3c2)CC1 [Example 294, 2-(4-(2-(2,6-dimethylpyridin-4-yl)-3-isopropyl-1H-indol-5-yl)piperidin-1-yl)-N-ethyl-N-(2-hydroxyethyl)acetamide]
20 | 6.5 nM | 3.7 nM | 273 nM |  |  |  |  |  | Cc1cc(-c2[nH]c3ccc(C4CCN(CC5CCNC5)CC4)cc3c2C(C)C)cc(C)n1 (stereo not drawn) [Example 466, 2-(2,6-dimethylpyridin-4-yl)-3-isopropyl-5-(1-(pyrrolidin-3-ylmethyl)piperidin-4-yl)-1H-indole]
21 | 13.3 nM | 66.1 nM | 17200 nM |  |  |  |  |  | Cc1cc(-c2[nH]c3ccc(C4CCN(C(=O)Cn5cnnn5)CC4)cc3c2C(C)C)cc(C)n1 [Example 165, 1-(4-(2-(2,6-dimethylpyridin-4-yl)-3-isopropyl-1H-indol-5-yl)piperidin-1-yl)-2-(1H-tetrazol-1-yl)ethan-1-one]
22 | 32.4 nM | 12.6 nM | 393 nM |  |  |  |  |  | Cc1cc(-c2[nH]c3ccc(C4CCN(C5CCNCC5C)CC4)cc3c2C(C)C)ccn1 (stereo not drawn) [Example 709, 3-isopropyl-5-(3′-methyl-[1,4′-bipiperidin]-4-yl)-2-(2-methylpyridin-4-yl)-1H-indole]
23 | 8.3 nM | 24.4 nM | 1810 nM |  |  |  |  |  | Cc1cc(-c2[nH]c3ccc(C4CCN(CC(=O)N[C@H](C)C(F)(F)F)CC4)cc3c2C(C)C)cc(C)n1 [Example 252, (R)-2-(4-(2-(2,6-dimethylpyridin-4-yl)-3-isopropyl-1H-indol-5-yl)piperidin-1-yl)-N-(1,1,1-trifluoropropan-2-yl)acetamide]
24 | 3.6 nM | 86.1 nM | 46600 nM |  |  |  |  |  | Cc1cc(-c2[nH]c3ccc(C4CCN(C(=O)C5CCOC5)CC4)cc3c2C(C)C)cc(C)n1 (stereo not drawn) [Example 199, (4-(2-(2,6-dimethylpyridin-4-yl)-3-isopropyl-1H-indol-5-yl)piperidin-1-yl)(tetrahydrofuran-3-yl)methanone]
25 | 7.9 nM | 49.4 nM | > 50000 nM |  |  |  |  |  | Cc1cc(-c2[nH]c3ccc(C4CCN(C(=O)CN5CCOCC5=O)CC4)cc3c2C(C)C)cc(C)n1 [Example 161, 4-(2-(4-(2-(2,6-dimethylpyridin-4-yl)-3-isopropyl-1H-indol-5-yl)piperidin-1-yl)-2-oxoethyl)morpholin-3-one]
26 | 8.8 nM | 57.9 nM | 592 nM |  |  |  |  |  | CNCC(=O)N1CCC(c2ccc3[nH]c(-c4cc(C)nc(C5CC5)c4)c(C(C)C)c3c2)CC1 [Example 508, 1-(4-(2-(2-cyclopropyl-6-methylpyridin-4-yl)-3-isopropyl-1H-indol-5-yl)piperidin-1-yl)-2-(methylamino)ethan-1-one]
27 | 14.6 nM | 28.4 nM | 13400 nM |  |  |  |  |  | Cc1cc(-c2[nH]c3ccc(C4CCN(C(=O)C5(O)CC5)CC4)cc3c2C(C)C)cc(C)n1 [Example 107, (4-(2-(2,6-dimethylpyridin-4-yl)-3-isopropyl-1H-indol-5-yl)piperidin-1-yl)(1-hydroxycyclopropyl)methanone]
28 | 5.5 nM | 81.1 nM | 35100 nM |  |  |  |  |  | CC(=O)N1CCC(c2ccc3[nH]c(-c4cc(C)nc(C)c4)c(C(C)C)c3c2)CC1 [Example 174, 1-(4-(2-(2,6-dimethylpyridin-4-yl)-3-isopropyl-1H-indol-5-yl)piperidin-1-yl)ethan-1-one]

From patent US10660877B2 (BRISTOL-MYERS SQUIBB COMPANY, priority 2016, dated 2020)
